In US20240360415A1, “MUSCLE CELLS DIFFERENTIATED FROM PLURIPOTENT CELLS, METHODS OF PRODUCING SAME AND USE THEREOF” (ALEPH FARMS LTD., priority 2021, published 2024):

System: Bovine pluripotent stem cells (PSCs)
Assay: Immunofluorescence staining of Myosin heavy chain (MF-20 antibody) after total of 11 days of differentiation
Format: cell-based
Conditions: 3D suspension 4 days with factors (CHIR 10 μM; Activin A 20 ng/ml or TGFβ 2 ng/ml), then 7 days 2D serum-free without factors; FIG. 3A-3C
Procedure: Bovine skeletal muscle cells in 2D culture were subjected to immunofluorescence analysis as following: The cells were fixed using 4% Paraformaldehyde (PFA; […] Nuclei were stained using […] of DAPI (Sigma). The imaging was performed using EVOS FL Auto 2 Fluorescent Microscopy (ThermoFisher). Bovine pluripotent stem cells (PSCs) were grown in 2D and/or 3D culture. […] The suspension culture conditions (“3D culture conditions”) include ultra-low adherent (ULA) 6-well plate (Corning) placed at 38.5° C. under 5% CO2 and humidity of >75% under rotation. Medium was refreshed using the skeletal Muscle Precursor medium (without RI) and the formed aggregates were allowed to differentiate for a total of 4 days. The aggregates comprising skeletal muscle committed cells were collected and seeded on in a tissue culture Vitronectin (0.005 mg/ml) pre-coated plate (“2D conditions”) in serum free growth medium. […] Medium was refreshed using the skeletal Muscle Precursor medium (without RI) and the formed aggregates were allowed to differentiate for a total of 4 days. After 4 days, the cells comprising skeletal muscle committed cells were collected and seeded in a 2D culture conditions as described for the aggregate obtained from 3D culture conditions described above.

Cc1cnc(-c2cnc(NCCNc3ccc(C#N)cn3)nc2-c2ccc(Cl)cc2Cl)[nH]1 [CHIR-99021, 6-[[2-[[4-(2,4-Dichlorophenyl)-5-(5-methyl-1H-imidazol-2-yl)-2-pyrimidinyl]amino]ethyl]amino]-3-pyridinecarbonitrile]
Myosin heavy chain positive (skeletal muscle) cells by immunofluorescence: no Myosin positive cells
